Assay results taken from publication PMC3100226 (Journal of Pain Research, 2011).

How the values were obtained:
human recombinant MAO-A = human recombinant MAO-A (Homo sapiens, UniProt P21397); test: Human recombinant MAO-A functional assay; type: biochemical
conscious rat = test: Safety pharmacology, respiratory, conscious rat; type: in vivo; conditions: supra-pharmacological doses
Sigma (σ1 + σ2) = test: Receptor characterization panel: sigma binding; conditions: [3H]DTG, whole brain/rat
CCK2 = target: T1, CCK2 (Cavia porcellus, UniProt H0VZC5); test: Receptor characterization panel: CCK2 binding; design: species or system guinea pig; conditions: read-out: 10 μM CR4056 (% effect), inhibition of specific binding
T1 sequence (H0VZC5 1-426): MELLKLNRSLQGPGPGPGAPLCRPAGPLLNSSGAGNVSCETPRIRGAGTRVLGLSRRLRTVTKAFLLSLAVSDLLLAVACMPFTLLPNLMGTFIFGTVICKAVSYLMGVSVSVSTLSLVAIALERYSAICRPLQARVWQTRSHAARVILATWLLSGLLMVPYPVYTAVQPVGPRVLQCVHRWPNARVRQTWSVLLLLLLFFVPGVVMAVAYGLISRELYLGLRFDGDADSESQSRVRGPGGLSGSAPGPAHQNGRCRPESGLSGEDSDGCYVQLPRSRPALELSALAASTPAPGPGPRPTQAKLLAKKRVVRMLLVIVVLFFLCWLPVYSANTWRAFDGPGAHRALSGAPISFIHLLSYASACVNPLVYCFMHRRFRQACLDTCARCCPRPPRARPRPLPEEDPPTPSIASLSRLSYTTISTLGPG

cycooxygenase-2 (COX2) = cycooxygenase-2 (COX2) (Homo sapiens, UniProt P35354); test: Enzyme characterization panel: COX2; type: biochemical; conditions: data not shown
D1 = D1 (Rattus norvegicus, UniProt P18901); test: Receptor characterization panel: D1 binding; conditions: read-out: 10 μM CR4056 (% effect), inhibition of specific binding
D2 = D2 (Rattus norvegicus, UniProt P61169); test: Receptor characterization panel: D2 binding; conditions: read-out: 10 μM CR4056 (% effect), inhibition of specific binding
I1 = I1 (Bos taurus, UniProt F1N322); test: Receptor characterization panel: I1 binding; design: species or system bovine; conditions: read-out: 10 μM CR4056 (% effect), inhibition of specific binding
[1] = target: Glycine (strychnine-sensitive) (Rattus norvegicus, UniProt P07727); test: Receptor characterization panel: glycine receptor binding; conditions: read-out: 10 μM CR4056 (% effect), inhibition of specific binding
MAO-B = target: T2, MAO-B (Rattus norvegicus, UniProt P19643); test: MAO-B binding
T2 sequence (P19643 1-520): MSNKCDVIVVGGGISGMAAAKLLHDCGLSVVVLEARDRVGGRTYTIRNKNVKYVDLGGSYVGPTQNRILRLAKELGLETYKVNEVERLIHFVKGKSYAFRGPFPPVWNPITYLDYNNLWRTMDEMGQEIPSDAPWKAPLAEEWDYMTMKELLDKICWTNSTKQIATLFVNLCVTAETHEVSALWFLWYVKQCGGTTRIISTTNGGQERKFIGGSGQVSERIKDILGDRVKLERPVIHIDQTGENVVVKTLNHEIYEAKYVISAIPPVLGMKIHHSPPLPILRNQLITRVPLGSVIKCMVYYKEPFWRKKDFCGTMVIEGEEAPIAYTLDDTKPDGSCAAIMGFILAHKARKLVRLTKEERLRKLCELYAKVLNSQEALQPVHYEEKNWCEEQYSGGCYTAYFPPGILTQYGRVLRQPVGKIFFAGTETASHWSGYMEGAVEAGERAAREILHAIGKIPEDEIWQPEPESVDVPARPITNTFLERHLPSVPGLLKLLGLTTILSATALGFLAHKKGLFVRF

[2] = tested on: acid-induced muscle allodynia in rats; test: Acid-induced muscle allodynia; type: in vivo; conditions: rat; for Mechanical threshold (grams) ± SEM, left paw (SX) / Mechanical threshold (grams) ± SEM, right paw (DX): day 6 after treatment, OS
PI 3-Kβ = PI 3-Kβ (Homo sapiens, UniProt P42338); test: Enzyme characterization panel: PI 3-Kβ; type: biochemical; conditions: data not shown
[3] = target: inducible NO synthase (iNOS) (Homo sapiens, UniProt P35228); test: Enzyme characterization panel: iNOS; type: biochemical; conditions: data not shown
[4] = tested on: CFA-induced inflammatory pain in rats; test: CFA-induced mechanical hyperalgesia; type: in vivo; conditions: rat; p.o., 24 hours after CFA
[5] = tested on: locomotor activity of rats; test: Open field test; type: in vivo; conditions: rat; 3–30 mg/kg oral, one hour after administration
PI 3-Kγ = PI 3-Kγ (Homo sapiens, UniProt P48736); test: Enzyme characterization panel: PI 3-Kγ; type: biochemical; conditions: data not shown
GABA-A (muscimol site) = test: Receptor characterization panel: GABA-A muscimol site binding; conditions: 10 μM; [3H]Muscimol; cerebral cortex/rat
CCK1 = CCK1 (Rattus norvegicus, UniProt P30551); test: Receptor characterization panel: CCK1 binding; conditions: read-out: 10 μM CR4056 (% effect), inhibition of specific binding
[6] = tested on: neuromuscular coordination of rats; test: Rotarod test; type: in vivo; conditions: rat; oral 3–30 mg/kg
human mTOR kinase = human mTOR kinase (Homo sapiens, UniProt P42345); test: Enzyme characterization panel: mTOR kinase; type: biochemical; conditions: data not shown
rats = test: Diuretic effect in rats; type: in vivo, rat; conditions: pharmacological/toxicological dose range

Chain of human recombinant MAO-A (P21397 whole entry): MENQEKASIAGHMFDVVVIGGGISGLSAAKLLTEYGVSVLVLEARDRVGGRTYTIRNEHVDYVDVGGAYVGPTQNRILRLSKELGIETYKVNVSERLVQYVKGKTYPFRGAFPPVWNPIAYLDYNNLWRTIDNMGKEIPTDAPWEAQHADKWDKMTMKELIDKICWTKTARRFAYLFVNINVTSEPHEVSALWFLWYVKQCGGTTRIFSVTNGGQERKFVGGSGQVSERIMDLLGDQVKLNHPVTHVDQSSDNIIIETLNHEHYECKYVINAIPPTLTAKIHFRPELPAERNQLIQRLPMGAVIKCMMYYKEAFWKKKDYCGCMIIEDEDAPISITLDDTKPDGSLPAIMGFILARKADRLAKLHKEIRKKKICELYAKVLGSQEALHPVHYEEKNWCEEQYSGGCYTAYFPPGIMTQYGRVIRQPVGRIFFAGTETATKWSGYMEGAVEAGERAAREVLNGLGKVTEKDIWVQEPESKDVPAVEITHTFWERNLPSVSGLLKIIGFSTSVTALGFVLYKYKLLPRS
Chain of D2 (P61169 whole entry): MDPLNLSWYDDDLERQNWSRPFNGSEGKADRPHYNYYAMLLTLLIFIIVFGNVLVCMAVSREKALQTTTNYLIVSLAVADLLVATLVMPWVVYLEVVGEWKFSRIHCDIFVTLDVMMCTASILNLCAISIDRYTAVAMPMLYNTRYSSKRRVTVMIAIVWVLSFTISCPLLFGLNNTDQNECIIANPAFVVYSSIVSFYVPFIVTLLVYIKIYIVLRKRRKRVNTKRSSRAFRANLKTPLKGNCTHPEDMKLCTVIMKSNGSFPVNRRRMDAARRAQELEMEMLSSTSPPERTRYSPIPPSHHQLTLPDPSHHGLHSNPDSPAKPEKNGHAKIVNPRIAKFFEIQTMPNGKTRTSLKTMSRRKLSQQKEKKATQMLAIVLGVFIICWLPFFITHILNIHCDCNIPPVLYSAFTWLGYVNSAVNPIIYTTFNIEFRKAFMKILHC
Chain of PI 3-Kγ (P48736 whole entry, species assumed): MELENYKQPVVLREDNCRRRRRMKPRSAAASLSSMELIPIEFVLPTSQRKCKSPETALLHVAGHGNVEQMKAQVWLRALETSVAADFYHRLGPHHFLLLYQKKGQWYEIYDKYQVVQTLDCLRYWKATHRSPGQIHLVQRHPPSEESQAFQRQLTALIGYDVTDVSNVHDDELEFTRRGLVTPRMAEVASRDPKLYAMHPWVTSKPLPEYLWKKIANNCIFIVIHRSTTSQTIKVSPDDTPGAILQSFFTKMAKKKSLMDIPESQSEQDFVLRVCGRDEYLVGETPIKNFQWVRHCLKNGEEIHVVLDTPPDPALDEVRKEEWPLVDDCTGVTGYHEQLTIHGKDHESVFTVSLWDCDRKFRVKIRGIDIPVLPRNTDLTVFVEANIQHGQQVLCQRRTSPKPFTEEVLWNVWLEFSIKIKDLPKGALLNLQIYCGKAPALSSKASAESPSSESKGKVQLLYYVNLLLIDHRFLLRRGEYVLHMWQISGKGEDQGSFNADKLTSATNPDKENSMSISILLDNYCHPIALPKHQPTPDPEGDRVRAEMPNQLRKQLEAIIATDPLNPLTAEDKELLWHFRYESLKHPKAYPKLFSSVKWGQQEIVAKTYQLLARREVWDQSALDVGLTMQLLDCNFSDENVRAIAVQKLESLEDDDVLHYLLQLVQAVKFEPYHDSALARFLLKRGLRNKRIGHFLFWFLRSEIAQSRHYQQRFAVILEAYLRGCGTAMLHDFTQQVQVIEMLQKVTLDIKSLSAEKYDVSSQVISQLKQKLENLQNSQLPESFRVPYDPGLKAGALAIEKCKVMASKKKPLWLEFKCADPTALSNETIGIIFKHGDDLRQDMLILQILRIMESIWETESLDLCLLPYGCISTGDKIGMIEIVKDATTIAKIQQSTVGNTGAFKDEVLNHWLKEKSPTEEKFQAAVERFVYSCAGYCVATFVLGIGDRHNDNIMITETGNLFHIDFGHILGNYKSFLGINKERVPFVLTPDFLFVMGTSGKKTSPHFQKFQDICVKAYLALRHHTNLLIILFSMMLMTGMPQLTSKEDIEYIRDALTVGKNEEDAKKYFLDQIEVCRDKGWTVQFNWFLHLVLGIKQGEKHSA
Chain of CCK1 (P30551 whole entry): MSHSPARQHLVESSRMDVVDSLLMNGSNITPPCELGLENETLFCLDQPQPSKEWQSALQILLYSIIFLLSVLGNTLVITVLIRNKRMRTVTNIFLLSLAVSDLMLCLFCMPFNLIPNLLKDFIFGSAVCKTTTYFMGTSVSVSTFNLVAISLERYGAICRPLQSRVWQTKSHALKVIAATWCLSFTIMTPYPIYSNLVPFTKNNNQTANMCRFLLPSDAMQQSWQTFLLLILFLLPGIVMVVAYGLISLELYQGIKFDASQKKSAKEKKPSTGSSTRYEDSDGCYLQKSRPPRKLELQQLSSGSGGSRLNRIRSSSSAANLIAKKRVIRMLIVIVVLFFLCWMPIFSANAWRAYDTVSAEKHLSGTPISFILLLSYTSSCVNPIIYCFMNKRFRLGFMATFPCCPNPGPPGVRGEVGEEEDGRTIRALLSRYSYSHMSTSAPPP
Chain of D1 (P18901 whole entry): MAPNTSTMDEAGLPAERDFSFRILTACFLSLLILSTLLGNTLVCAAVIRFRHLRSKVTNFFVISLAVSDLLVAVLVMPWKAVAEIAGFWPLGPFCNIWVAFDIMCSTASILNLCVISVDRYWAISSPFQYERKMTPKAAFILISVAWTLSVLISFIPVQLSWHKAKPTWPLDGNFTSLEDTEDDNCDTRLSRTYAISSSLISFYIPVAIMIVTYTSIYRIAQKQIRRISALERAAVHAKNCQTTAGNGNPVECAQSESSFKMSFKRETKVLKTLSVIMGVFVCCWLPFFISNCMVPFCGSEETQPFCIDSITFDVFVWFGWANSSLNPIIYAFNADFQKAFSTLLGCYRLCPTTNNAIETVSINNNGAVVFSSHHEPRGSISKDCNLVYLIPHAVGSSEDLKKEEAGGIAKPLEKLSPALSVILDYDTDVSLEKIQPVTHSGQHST
Chain of inducible NO synthase (iNOS) (P35228 whole entry, species assumed): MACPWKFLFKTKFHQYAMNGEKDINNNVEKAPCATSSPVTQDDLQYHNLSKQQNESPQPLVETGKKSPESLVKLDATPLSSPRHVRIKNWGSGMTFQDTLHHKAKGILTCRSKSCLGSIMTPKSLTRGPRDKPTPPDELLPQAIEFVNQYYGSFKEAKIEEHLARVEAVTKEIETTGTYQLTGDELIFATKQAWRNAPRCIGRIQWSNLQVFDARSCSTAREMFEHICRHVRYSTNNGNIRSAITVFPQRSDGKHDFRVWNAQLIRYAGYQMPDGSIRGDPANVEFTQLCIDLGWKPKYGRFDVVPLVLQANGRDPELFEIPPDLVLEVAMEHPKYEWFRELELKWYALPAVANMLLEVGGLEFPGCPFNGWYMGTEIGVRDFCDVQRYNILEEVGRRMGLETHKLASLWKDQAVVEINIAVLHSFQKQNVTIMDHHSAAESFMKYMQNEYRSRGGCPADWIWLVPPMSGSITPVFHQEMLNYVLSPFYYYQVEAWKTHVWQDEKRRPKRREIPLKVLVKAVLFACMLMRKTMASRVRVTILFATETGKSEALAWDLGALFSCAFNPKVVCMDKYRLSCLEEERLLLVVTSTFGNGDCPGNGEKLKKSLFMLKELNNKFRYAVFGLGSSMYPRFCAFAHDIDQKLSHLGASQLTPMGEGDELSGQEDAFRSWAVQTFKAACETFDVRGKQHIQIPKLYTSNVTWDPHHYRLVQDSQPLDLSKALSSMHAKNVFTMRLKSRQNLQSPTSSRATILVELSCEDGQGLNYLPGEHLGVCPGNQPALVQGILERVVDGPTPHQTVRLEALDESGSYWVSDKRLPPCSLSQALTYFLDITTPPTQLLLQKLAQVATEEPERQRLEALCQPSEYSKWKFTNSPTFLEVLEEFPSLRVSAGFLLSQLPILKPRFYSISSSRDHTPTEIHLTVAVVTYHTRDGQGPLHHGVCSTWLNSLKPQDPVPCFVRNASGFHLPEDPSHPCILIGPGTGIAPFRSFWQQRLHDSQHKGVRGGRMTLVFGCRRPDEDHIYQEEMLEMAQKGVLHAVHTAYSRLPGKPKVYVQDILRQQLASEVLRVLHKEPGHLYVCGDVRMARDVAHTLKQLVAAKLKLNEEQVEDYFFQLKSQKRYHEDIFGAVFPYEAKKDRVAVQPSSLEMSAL
Chain of cycooxygenase-2 (COX2) (P35354 18-604): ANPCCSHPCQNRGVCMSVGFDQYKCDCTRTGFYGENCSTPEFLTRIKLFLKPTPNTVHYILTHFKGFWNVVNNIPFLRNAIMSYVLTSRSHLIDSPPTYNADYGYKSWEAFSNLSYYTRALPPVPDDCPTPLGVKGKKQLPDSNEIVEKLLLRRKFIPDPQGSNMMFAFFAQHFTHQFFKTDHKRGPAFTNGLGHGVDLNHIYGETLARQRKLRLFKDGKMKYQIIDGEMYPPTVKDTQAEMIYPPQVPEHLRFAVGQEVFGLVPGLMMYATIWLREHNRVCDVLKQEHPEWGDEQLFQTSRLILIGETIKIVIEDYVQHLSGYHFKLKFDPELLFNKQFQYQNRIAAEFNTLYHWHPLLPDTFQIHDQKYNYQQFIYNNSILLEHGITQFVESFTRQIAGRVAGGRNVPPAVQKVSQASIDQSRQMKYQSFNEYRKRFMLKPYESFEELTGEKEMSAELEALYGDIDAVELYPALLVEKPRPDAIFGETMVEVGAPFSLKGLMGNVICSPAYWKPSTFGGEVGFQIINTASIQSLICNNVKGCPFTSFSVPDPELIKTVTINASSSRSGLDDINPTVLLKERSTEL

Q: How did the IC50 (human recombinant MAO-A) turn out when `c1ccc(-c2ncc3cc(-n4ccnc4)ccc3n2)cc1` [CR4056, 2-phenyl-6-(1H-imidazol-1yl)quinazoline] was run?
A: Its IC50 is 203 ± 10.3 nM.

Q: And the Respiratory effects (conscious rat)?
A: Its Respiratory effects is “tachypnea associated with a respiratory stimulant effect”.

Q: And the “10 μM CR4056 (% effect), inhibition of specific binding” value (Sigma (σ1 + σ2))?
A: Its value is 18%.

Q: And the inhibition at 10 µM (CCK2)?
A: Its inhibition at 10 µM is 16%.

Q: What about the “Activity in enzyme characterization panel” value (cycooxygenase-2 (COX2)) of the same compound?
A: Its value is “inactive”.

Q: What about the inhibition at 10 µM (D1) of the same compound?
A: The inhibition at 10 µM was 19%.

Q: And the inhibition at 10 µM (D2)?
A: The inhibition at 10 µM was 25%.

Q: What about the inhibition at 10 µM (I1) of the same compound?
A: Its inhibition at 10 µM is 23%.

Q: And the inhibition at 10 µM [1]?
A: The inhibition at 10 µM was 19%.

Q: What about the “Concentrations for inhibition of MAO-B specific binding relative to MAO-A” value (MAO-B; rat cerebral membranes, [3H]Ro 19-6327 15 nM) of the same compound?
A: Its value is “two orders of magnitude higher”.

Q: What about the inhibition at 10 µM (MAO-B; read-out: 10 μM CR4056 (% effect), inhibition of specific binding) of the same compound?
A: The inhibition at 10 µM was 35%.

Q: What about the “Reversal of acidic saline induced allodynia” value ([2]; 20 and 60 mg/kg oral) of the same compound?
A: Its value is “completely reversed”.

Q: What about the “Mechanical threshold (grams) ± SEM, left paw (SX)” value ([2]; 6 mg/kg) of the same compound?
A: The value was 27.9 ± 1.1 grams.

Q: What about the “Mechanical threshold (grams) ± SEM, right paw (DX)” value ([2]; 6 mg/kg) of the same compound?
A: Its value is 28.3 ± 1.9 grams.

Q: And the “Mechanical threshold (grams) ± SEM, left paw (SX)” value ([2]; 20 mg/kg)?
A: Its value is 37.1 ± 0.8 grams.

Q: What about the “Mechanical threshold (grams) ± SEM, right paw (DX)” value ([2]; 20 mg/kg) of the same compound?
A: Its value is 38.4 ± 1.7 grams.

Q: And the “Mechanical threshold (grams) ± SEM, left paw (SX)” value ([2]; 60 mg/kg)?
A: The value was 39.2 ± 1.6 grams.

Q: What about the “Mechanical threshold (grams) ± SEM, right paw (DX)” value ([2]; 60 mg/kg) of the same compound?
A: Its value is 37.4 ± 2.1 grams.

Q: What about the “Activity in enzyme characterization panel” value (PI 3-Kβ) of the same compound?
A: Its value is “inactive”.

Q: And the “Activity in enzyme characterization panel” value [3]?
A: Its value is “inactive”.

Q: What about the “ED100 (calculated), complete reversion of CFA-induced hyperalgesia” value [4] of the same compound?
A: The value was 22.3 mg/kg.

Q: And the “Locomotor activity levels in open field test” value [5]?
A: The value was “no statistical differences”.

Q: What about the “Activity in enzyme characterization panel” value (PI 3-Kγ) of the same compound?
A: The value was “inactive”.

Q: And the “10 μM CR4056 (% effect), inhibition of specific binding” value (GABA-A (muscimol site))?
A: Its value is 26%.

Q: And the inhibition at 10 µM (CCK1)?
A: Its inhibition at 10 µM is 21%.

Q: And the “Performance in rotarod test” value [6]?
A: Its value is “did not cause a deterioration”.

Q: What about the “Activity in enzyme characterization panel” value (human mTOR kinase) of the same compound?
A: Its value is “inactive”.

Q: And the Diuretic effect (rats)?
A: The Diuretic effect was “dose-dependent diuretic effect”.
